This experiment has as its system mouse tumor MM46 breast cancer cells. Kind of experiment: Tumor growth inhibition test in mice. It is filed as in vivo. To be noted: Positive Control group: 6.25 mg/kg intraperitoneally on days 7, 11 and 14. The method, then: The required weighed amounts of Acacia Hot Water Extract No. 1 described in Production Example 2 were dispersed in water at 60° C. to prepare test drinks 1, 2 and 3 containing Acacia Hot Water Extract No. 1 at 7.8 mg/mL, 15.6 mg/mL and 31.3 mg/mL, respectively.
The required weighed amounts of Acacia Hot Water Extract No. 1 described in Production Example 2 were mixed with commercially available feed to prepare test feeds 2 and 3 containing Acacia Hot Water Extract No. 1 at 15.6 mg/g and 31.3 mg/g, respectively.
Female C3H/HeN mice were assigned to a Control 1 group, Test 1 group, Test 2 group, Test 3 group and Positive Control group as shown in the table below.
First, 2×10^6 mouse tumor MM46 breast cancer cells were transplanted subcutaneously into the inguinal region of the mice grouped as indicated above according to the method described in Abe, S. et al., Gann 73, 91-96 (1982) and Ohasi, K. et al., Yakugaku Zasshi 113, 396-399 (1993).
Tap water was given to the Control 1 group while Test Drinks 1 to 3 were given to the Test 1 to Test 3 groups, respectively, as drinking water, starting on the day of tumor transplantation. In addition, tap water was given to the Positive Control group, and this group was also intraperitoneally administered 6.25 mg/kg of lentinan on days 7, 11 and 14 following tumor transplantation.
Consequently, Test Drink 2 and Test Drink 3 were replaced with tap water on day 7 of tumor transplantation. In addition, five mice each of the Test 2 group were reassigned to a Control 2 group and a Test 2a group, while five mice each of the Test 3 group were reassigned to a Control 3 group and a Test 3a group. Animals of the Control 2 group and Control 3 group were continued to be fed the control feed. The Test 2a group and Test 3a group were fed Test Feed 2 and Test Feed 3, respectively, instead of the control feed.
Growth of the tumor transplanted subcutaneously into the inguinal regions of the mice was observed by palpation for 4 weeks every 3 or 4 days, and tumor diameter was also measured. In addition, survival times (days) and body weights were also measured. The tumors were excised and their wet weights were measured following completion of the test.
Furthermore, the Student's t-test was used for statistical testing.

As to lentinan, under “day 14 after transplantation”, the Average tumor diameter stood at 7.4 ± 6.58 mm and the “reduction rate versus Control 1 group (average tumor diameter)” value was 43.5%. For the same substance, under “day 28 after transplantation”, the Average tumor diameter is 14.0 ± 6.12 mm and the “reduction rate versus Control 1 group (average tumor diameter)” value was determined as 41.2%.
